biological target: T1, human RXFP1 (Homo sapiens, UniProt Q9HBX9); assay: hRXFP1 HEK293 cAMP assay (HTRF); assay type: cell-based; settings: HEK293 cells stably expressing human RXFP1; 30 min at rt; intracellular cAMP by HTRF
T1 construct: expressed in transfected cells
T1 sequence (Q9HBX9 1-757): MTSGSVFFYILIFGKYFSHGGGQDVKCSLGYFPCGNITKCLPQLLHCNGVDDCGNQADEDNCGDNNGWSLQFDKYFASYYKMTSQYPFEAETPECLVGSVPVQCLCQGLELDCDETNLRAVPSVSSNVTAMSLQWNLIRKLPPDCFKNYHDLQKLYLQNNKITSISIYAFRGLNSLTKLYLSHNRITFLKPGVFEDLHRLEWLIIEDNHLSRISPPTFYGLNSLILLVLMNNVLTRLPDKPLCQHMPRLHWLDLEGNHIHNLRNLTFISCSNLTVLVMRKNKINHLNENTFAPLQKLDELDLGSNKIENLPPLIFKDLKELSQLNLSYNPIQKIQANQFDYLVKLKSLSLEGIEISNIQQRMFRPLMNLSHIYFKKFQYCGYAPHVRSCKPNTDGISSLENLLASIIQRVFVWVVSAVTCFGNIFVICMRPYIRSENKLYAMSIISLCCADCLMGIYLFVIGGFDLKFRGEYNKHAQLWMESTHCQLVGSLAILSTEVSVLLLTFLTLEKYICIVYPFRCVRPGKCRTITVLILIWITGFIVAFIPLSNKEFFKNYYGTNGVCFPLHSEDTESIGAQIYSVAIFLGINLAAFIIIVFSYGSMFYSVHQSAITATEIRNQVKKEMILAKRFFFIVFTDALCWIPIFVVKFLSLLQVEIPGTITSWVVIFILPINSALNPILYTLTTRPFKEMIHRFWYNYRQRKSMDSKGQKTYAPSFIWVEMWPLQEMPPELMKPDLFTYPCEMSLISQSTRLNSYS
Procedure, shortened: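 HEK293 cells stably expressing human RXFP1 treated 30 min at rt with compound (0.010 nM to 50 μM, 2% DMSO) in HBSS/HEPES buffer with 0.5 mM IBMX. Intracellular cAMP measured by HTRF (665/590 nm ratio) against a cAMP standard curve; potency fitted by 4-parameter logistic.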

Compound | EC50
COc1cc(F)c(C(=O)N2CC3(COC3)C2)cc1C(=O)Nc1c(C(=O)Nc2ccc(F)c(C(F)(F)F)c2)sc2cc(C(F)(F)F)ccc12 [Example 185, 3-(4-fluoro-2-methoxy-5-(2-oxa-6-azaspiro[3.3]heptane-6-carbonyl)benzamido)-N-(4-fluoro-3-(trifluoromethyl)phenyl)-6-(trifluoromethyl) benzo[b] thiophene-2-carboxamide] | 0.736 µM
COc1ccc(C(=O)NC(C)(C)CO)cc1C(=O)Nc1c(C(=O)Nc2ccc(F)c(C(F)(F)F)c2)sc2cc(C(F)(F)F)ccc12 [Example 190, N3-(2-((4-fluoro-3-(trifluoromethyl)phenyl)carbamoyl)-6-(trifluoromethyl)benzo[b]thiophen-3-yl)-N1-(1-hydroxy-2-methylpropan-2-yl)-4-methoxy-isophthalamide] | 0.689 µM
COc1ccc(C2CC3CCC(C2)N3CC(N)=O)cc1C(=O)Nc1c(C(=O)Nc2ccc(F)c(C(F)(F)F)c2)sc2cc(C(F)(F)F)ccc12 (centres unmarked) [Example 192, 3-(5-(8-(2-amino-2-oxoethyl)-8-azabicyclo[3.2.1]octan-3-yl)-2-methoxy-benzamido)-N-(4-fluoro-3-(trifluoromethyl)phenyl)-6-(trifluoromethyl) benzo[b] thiophene-2-carboxamide] | 0.889 µM
COc1ccc(C2CC3CCC(C2)N3CCS(C)(=O)=O)cc1C(=O)Nc1c(C(=O)Nc2ccc(F)c(C(F)(F)F)c2)sc2cc(C(F)(F)F)ccc12 (centres unmarked) [Example 193, N-(4-fluoro-3-(trifluoromethyl)phenyl)-3-(2-methoxy-5-(8-(2-(methylsulfonyl)ethyl)-8-azabicyclo[3.2.1]octan-3-yl)benzamido)-6-(trifluoromethyl) benzo[b] thiophene-2-carboxamide] | 0.3 µM
COc1ccc(N2CCC3(CN(CCS(C)(=O)=O)C3)C2)cc1C(=O)Nc1c(C(=O)Nc2ccc(F)c(C(F)(F)F)c2)sc2cc(C(F)(F)F)ccc12 [Example 194, N-(4-fluoro-3-(trifluoromethyl)phenyl)-3-(2-methoxy-5-(2-(2-(methylsulfonyl)ethyl)-2,6-diazaspiro[3.4]octan-6-yl)benzamido)-6-(trifluoromethyl) benzo[b] thiophene-2-carboxamide] | 0.746 µM
COc1ccc(C(=O)N2CC[C@@H](O)C2)cc1C(=O)Nc1c(C(=O)Nc2ccc(F)c(C(F)(F)F)c2)sc2cc(C3CC3)ncc12 [Example 195, (R)-6-cyclopropyl-N-(4-fluoro-3-(trifluoromethyl)phenyl)-3-(5-(3-hydroxy-pyrrolidine-1-carbonyl)-2-methoxy-benzamido) thieno[3,2-c] pyridine-2-carboxamide] | 0.91 µM
COc1ccc(C(=O)N2CC[C@@H](O)C2)cc1C(=O)Nc1c(C(=O)Nc2ccc(F)c(C(F)(F)F)c2)sc2cc(Cl)ncc12 [Example 199, (R)-6-chloro-N-(4-fluoro-3-(trifluoromethyl)phenyl)-3-(5-(3-hydroxypyrrolidine-1-carbonyl)-2-methoxy-benzamido) thieno[3,2-c]pyridine-2-carboxamide] | 0.69 µM
COc1ccc(C#CCO)cc1C(=O)Nc1c(C(=O)Nc2ccc(F)c(C(F)(F)F)c2)sc2cc(C3CC3)ncc12 [Example 202, 6-cyclopropyl-N-(4-fluoro-3-(trifluoromethyl)phenyl)-3-(5-(3-hydroxyprop-1-yn-1-yl)-2-methoxy-benzamido) thieno[3,2-c]pyridine-2-carboxamide] | 1.01 µM
COc1ccc(C2CC3(C2)CN(S(C)(=O)=O)C3)cc1C(=O)Nc1c(C(=O)Nc2ccc(F)c(C(F)(F)F)c2)sc2cc(C(F)(F)F)ccc12 [Example 204, N-(4-fluoro-3-(trifluoromethyl)phenyl)-3-(2-methoxy-5-(2-(methylsulfonyl)-2-azaspiro[3.3]heptan-6-yl)benzamido)-6-(trifluoromethyl) benzo[b] thiophene-2-carboxamide] | 1.17 µM
COc1ccc(C2CC3(C2)CN(CCS(C)(=O)=O)C3)cc1C(=O)Nc1c(C(=O)Nc2ccc(F)c(C(F)(F)F)c2)sc2cc(C(F)(F)F)ccc12 [Example 205, N-(4-fluoro-3-(trifluoromethyl)phenyl)-3-(2-methoxy-5-(2-(2-(methylsulfonyl)ethyl)-2-azaspiro[3.3]heptan-6-yl)benzamido)-6-(trifluoromethyl) benzo[b] thiophene-2-carboxamide] | 1.1 µM
COc1ccc(C2CC3(C2)CN(C(=O)CN(C)C)C3)cc1C(=O)Nc1c(C(=O)Nc2ccc(F)c(C(F)(F)F)c2)sc2cc(C(F)(F)F)ccc12 [Example 206, 3-(5-(2-(dimethylglycyl)-2-azaspiro[3.3]heptan-6-yl)-2-methoxy-benzamido)-N-(4-fluoro-3-(trifluoromethyl)phenyl)-6-(trifluoromethyl) benzo[b] thiophene-2-carboxamide] | 2.08 µM

Continued by falling EC50, values first:

EC50 | Compound
0.491 µM | COc1ccc(S(=O)(=O)N2CCC[C@@H](NC(=O)CCO)C2)cc1C(=O)Nc1c(C(=O)Nc2ccc(F)c(C(F)(F)F)c2)sc2cc(C(F)(F)F)ccc12 [Example 189, (R)-N-(4-fluoro-3-(trifluoromethyl)phenyl)-3-(5-((3-(3-hydroxy-propanamido)piperidin-1-yl)sulfonyl)-2-methoxy-benzamido)-6-(trifluoromethyl) benzo[b] thiophene-2-carboxamide]
0.45 µM | COc1ccc(C(=O)NCCS(C)(=O)=O)cc1C(=O)Nc1c(C(=O)Nc2ccc(F)c(C(F)(F)F)c2)sc2cc(Cl)ncc12 [Example 197, N3-(6-chloro-2-((4-fluoro-3-(trifluoromethyl)phenyl)carbamoyl)thieno[3,2-c]pyridin-3-yl)-4-methoxy-N1-(2-(methylsulfonyl)ethyl) isophthalamide]
0.4 µM | COc1ccc(CCCO)cc1C(=O)Nc1c(C(=O)Nc2ccc(F)c(C(F)(F)F)c2)sc2cc(Cl)ncc12 [Example 200, 6-chloro-N-(4-fluoro-3-(trifluoromethyl)phenyl)-3-(5-(3-hydroxypropyl)-2-methoxy-benzamido) thieno[3,2-c]pyridine-2-carboxamide]
0.346 µM | COc1ccc(C(=O)N2CC(O)C2)cc1C(=O)Nc1c(C(=O)Nc2ccc(F)c(C(F)(F)F)c2)sc2cc(C(F)(F)F)ccc12 [Example 191, N-(4-fluoro-3-(trifluoromethyl)phenyl)-3-(5-(3-hydroxyazetidine-1-carbonyl)-2-methoxy-benzamido)-6-(trifluoromethyl) benzo[b] thiophene-2-carboxamide]
0.328 µM | COc1cc(C)c(C(=O)NCC2(S(C)(=O)=O)CC2)cc1C(=O)Nc1c(C(=O)Nc2ccc(F)c(C(F)(F)F)c2)sc2cc(C(F)(F)F)ccc12 [Example 187, N1-(2-((4-fluoro-3-(trifluoromethyl)phenyl)carbamoyl)-6-(trifluoromethyl)benzo[b]thiophen-3-yl)-6-methoxy-4-methyl-N3-((1-(methylsulfonyl)cyclopropyl)methyl) isophthalamide]
0.32 µM | COc1ccc(-c2cc(C(=O)O)ccc2F)cc1C(=O)Nc1c(C(=O)Nc2ccc(F)c(C(F)(F)F)c2)sc2cc(Cl)ncc12 [Example 201, 3′-((6-chloro-2-((4-fluoro-3-(trifluoromethyl)phenyl)carbamoyl)thieno[3,2-c]pyridin-3-yl)carbamoyl)-6-fluoro-4′-methoxy-[1,1′-biphenyl]-3-carboxylic acid]
0.102 µM | COc1cc(F)c(C(=O)NCC2(S(C)(=O)=O)CC2)cc1C(=O)Nc1c(C(=O)Nc2ccc(F)c(C(F)(F)F)c2)sc2cc(C(F)(F)F)ccc12 [Example 186, 4-fluoro-N1-(2-((4-fluoro-3-(trifluoromethyl)phenyl)carbamoyl)-6-(trifluoromethyl)benzo[b]thiophen-3-yl)-6-methoxy-N3-((1-(methylsulfonyl)cyclopropyl)methyl) isophthalamide]
0.07 µM | COc1ccc(C(=O)NCC2(S(C)(=O)=O)CC2)cc1C(=O)Nc1c(C(=O)Nc2ccc(F)c(C(F)(F)F)c2)sc2cc(Cl)ncc12 [Example 196, N3-(6-chloro-2-((4-fluoro-3-(trifluoromethyl)phenyl)carbamoyl)thieno[3,2-c]pyridin-3-yl)-4-methoxy-N1-((1-(methylsulfonyl)cyclopropyl)methyl) isophthalamide]
0.0361 µM | COc1ccc(C(=O)NCC(C)(C)S(C)(=O)=O)cc1C(=O)Nc1c(C(=O)Nc2ccc(F)c(C(F)(F)F)c2)sc2cc(C(F)(F)F)ccc12 [Example 203, N3-(2-{[4-fluoro-3-(trifluoromethyl)phenyl]carbamoyl}-6-(trifluoromethyl)-1-benzothiophen-3-yl)-N1-(2-methanesulfonyl-2-methylpropyl)-4-methoxybenzene-1,3-dicarboxamide]

— patent US20260265233A1, “BENZOTHIOPHENE DERIVATIVES AS RXFP1 AGONISTS” (BRISTOL-MYERS SQUIBB COMPANY, priority 2021, published 2026)
